Test results as given in PubChem BioAssay AID256 (DTP/NCI, 2004).
Toxic doses and inconclusive results are not listed. How the source made its calls: active means survival T/C of 150% or more; inactive means T/C below 125% in these data.

Test system: CD2F1 mice, L1210 leukemia ip, survival T/C
Test: NCI In Vivo Anticancer Drug Screen. Data for tumor model L1210 Leukemia (intraperitoneal) in CD2F1 (CDF1) mice
Details: endpoint: mean survival time, higher = longer survival
Method in brief: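 Ratio T/C, where T is the treated-group value and C the vehicle-dosed control value, from mice implanted with a transplantable tumor.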

[1] = dose: 100.0 mg/kg/injection, schedule: Q04DX002 (ip), vehicle: saline with Tween-80
[2] = dose: 200.0 mg/kg/injection, schedule: Q04DX002 (ip), vehicle: saline with Tween-80
[3] = dose: 100.0 mg/kg/injection, schedule: Q01DX009 (ip), vehicle: saline with Tween-80
[4] = dose: 100.0 mg/kg/injection, schedule: Q04DX003 (ip), vehicle: saline with Tween-80
[5] = dose: 200.0 mg/kg/injection, schedule: Q01DX009 (ip), vehicle: saline with Tween-80
[6] = dose: 200.0 mg/kg/injection, schedule: Q04DX003 (ip), vehicle: saline with Tween-80
[7] = dose: 400.0 mg/kg/injection, schedule: Q01DX009 (ip), vehicle: saline with Tween-80
[8] = dose: 400.0 mg/kg/injection, schedule: Q04DX003 (ip), vehicle: saline with Tween-80

Measured: T/C

CCOC(=O)C/C(C)=C/c1ccccc1 (tested in a mixture with another compound)
inactive: dose: 100.0 mg/kg/injection, schedule: Q01DX001 (ip), vehicle: saline with Tween-80 95 % of control | [1] 98 % of control | dose: 200.0 mg/kg/injection, schedule: Q01DX001 (ip), vehicle: saline with Tween-80 87 % of control | [2] 90 % of control | dose: 400.0 mg/kg/injection, schedule: Q01DX001 (ip), vehicle: saline with Tween-80 94 % of control | dose: 400.0 mg/kg/injection, schedule: Q04DX002 (ip), vehicle: saline with Tween-80 110 % of control

c1ccc(C(=NCCN=C(c2ccccc2)c2ccccc2)c2ccccc2)cc1
inactive: [3] 97 % of control | [4] 97 % of control | [5] 92 % of control | [6] 97 % of control | [7] 95 % of control | [8] 97 % of control

Cc1ccc(P(=S)(c2ccc(C)c3ccccc23)c2ccc(C)c3ccccc23)c2ccccc12
inactive: dose: 100.0 mg/kg/injection, schedule: Q01DX001 (ip), vehicle: saline 91 % of control | dose: 200.0 mg/kg/injection, schedule: Q01DX001 (ip), vehicle: saline 97 % of control | dose: 400.0 mg/kg/injection, schedule: Q01DX001 (ip), vehicle: saline 91 % of control

CCCCNC(=S)NNC(=O)Cn1cnc2c1c(=O)n(C)c(=O)n2C
inactive: dose: 12.5 mg/kg/injection, schedule: Q01DX005 (ip), vehicle: distilled water + Tween-80 101 % of control | dose: 25.0 mg/kg/injection, schedule: Q01DX005 (ip), vehicle: distilled water + Tween-80 101 % of control | dose: 50.0 mg/kg/injection, schedule: Q01DX005 (ip), vehicle: distilled water + Tween-80 97 % of control | dose: 100.0 mg/kg/injection, schedule: Q01DX005 (ip), vehicle: distilled water + Tween-80 97 % of control | dose: 200.0 mg/kg/injection, schedule: Q01DX005 (ip), vehicle: distilled water + Tween-80 101 % of control

O=C(O)CNCC(=O)O
inactive: [3] 93 % of control | [5] 97 % of control | [7] 98 % of control

O=C(O)c1ccc(Cl)cc1Nc1ccc(Cl)cc1
inactive: dose: 12.5 mg/kg/injection, schedule: Q04DX003 (ip), vehicle: saline with Tween-80 97 % of control | dose: 25.0 mg/kg/injection, schedule: Q04DX003 (ip), vehicle: saline with Tween-80 100 % of control | dose: 50.0 mg/kg/injection, schedule: Q04DX003 (ip), vehicle: saline with Tween-80 107 % of control | [4] 98 % of control

COC1=C(C)C(=O)c2c(c(COC(N)=O)c3n2CC2C3N2C)C1=O (stereo not given)
inactive: dose: 2.25 mg/kg/injection, schedule: Q01DX001 (ip), vehicle: acetone 103 % of control | dose: 2.9 mg/kg/injection, schedule: Q01DX001 (ip), vehicle: acetone 102 % of control | dose: 4.5 mg/kg/injection, schedule: Q01DX001 (ip), vehicle: acetone 110 % of control | dose: 6.75 mg/kg/injection, schedule: Q01DX001 (ip), vehicle: acetone 118 % of control | dose: 6.75 mg/kg/injection, schedule: Q01DX001 (ip), vehicle: saline 112 % of control

O/N=C/C(O)(c1ccccc1)c1ccccc1
inactive: [1] 107 % of control | [2] 100 % of control

C[N+](C)(C)C
inactive: dose: 5.0 mg/kg/injection, schedule: Q01DX001 (ip), vehicle: saline 98 % of control | dose: 5.0 mg/kg/injection, schedule: Q01DX009 (ip), vehicle: saline sonified 95 % of control | dose: 5.0 mg/kg/injection, schedule: Q04DX003 (ip), vehicle: saline 100 % of control | dose: 6.25 mg/kg/injection, schedule: Q01DX009 (ip), vehicle: saline with Tween-80 96 % of control | dose: 10.0 mg/kg/injection, schedule: Q01DX009 (ip), vehicle: saline sonified 87 % of control | dose: 20.0 mg/kg/injection, schedule: Q01DX001 (ip), vehicle: saline 98 % of control

COC(=O)CCC(=O)c1cccc(C)c1
inactive: dose: 200.0 mg/kg/injection, schedule: Q04DX003 (ip), vehicle: acetone 91 % of control | dose: 400.0 mg/kg/injection, schedule: Q04DX003 (ip), vehicle: acetone 89 % of control

CC1(C)CCC(C)(C)c2c1ccc(O)c2Sc1c(O)ccc2c1C(C)(C)CCC2(C)C
inactive: [3] 97 % of control | [4] 95 % of control | [5] 89 % of control | [6] 97 % of control | [7] 95 % of control | [8] 91 % of control

O
inactive: dose: 75.0 mg/kg/injection, schedule: Q01DX001 (ip), vehicle: saline 96 % of control | dose: 100.0 mg/kg/injection, schedule: Q01DX009 (ip), vehicle: saline 88 % of control | dose: 200.0 mg/kg/injection, schedule: Q01DX009 (ip), vehicle: saline 100 % of control | dose: 400.0 mg/kg/injection, schedule: Q01DX009 (ip), vehicle: saline 96 % of control

O=c1[nH]cnc2c1nc(Br)n2C1OC(CO)C(O)C1O (stereo not given)
inactive: dose: 12.5 mg/kg/injection, schedule: Q01DX005 (ip), vehicle: Klucel (hydroxypropylcellulose) (HPC) 91 % of control | dose: 25.0 mg/kg/injection, schedule: Q01DX005 (ip), vehicle: Klucel (hydroxypropylcellulose) (HPC) 89 % of control | dose: 50.0 mg/kg/injection, schedule: Q01DX005 (ip), vehicle: Klucel (hydroxypropylcellulose) (HPC) 93 % of control | dose: 100.0 mg/kg/injection, schedule: Q01DX005 (ip), vehicle: Klucel (hydroxypropylcellulose) (HPC) 88 % of control | dose: 200.0 mg/kg/injection, schedule: Q01DX005 (ip), vehicle: Klucel (hydroxypropylcellulose) (HPC) 89 % of control

OCCC1=CCCCC1
inactive: [3] 91 % of control | [5] 97 % of control | [7] 98 % of control
